The test system of data set [1] is GABAA receptor α+/β− interface. The note with it: cited from earlier work.
Data set [2] relates to GABAA receptor β+/α− interface at the amino acid β-265ASN. As to conditions: cited from earlier work.
The conditions of data set [3]: in vivo; cited from earlier work.
Data set [4] in a line: Saturation solubility in dist. water (HPLC), γ-CD complexes. In kind it is physicochemical. As to conditions: thermodynamic from solid, saturated solution shaken 60 minutes, HPLC DAD-254 nm.
Method: 10 mg taxifolin (Lavitol® 98.9% purity) was placed in a vial with 5 ml dist. water to make a saturated solution and shaken for 60 minutes. The solution was then transferred to a vial by means of a syringe with an HPLC filter (0.22 μm) and then measured (HPLC DAD-254 nm).
300 mg of the sample was placed in a vial with 5 ml dist. water to produce a saturated solution and shaken for 60 minutes. The solution was then transferred to a vial using a syringe with an HPLC filter (0.22 μm) and then measured undiluted (HPLC DAD-254 nm).
Data set [5] is described as follows: Dissolution behaviour, USP apparatus II (paddle). In kind it is physicochemical. The note with it: 100 rpm; for Mean release: N=2, 500 ml 0.1 N HCl. How it is done: In order to check the dissolution behaviour of the final formulations, dissolution studies of the cyclodextrin and the Eudragit formulation against pure taxifolin were carried out.
Method: In order to determine the dissolution behaviour, the usual procedure according to pharmacopoeia was chosen.
USP apparatus II (paddle); 100 rpm; medium: 500 ml 0.1 N HCl; 2 vessels per sample (N=2); 7 sampling points: 0 min, 5 min, 10 min, 15 min, 20 min, 30 min, 60 min; weighed in: formulation as a powder corresponding to 100 mg taxifolin; detection by HPLC
The following formulations were tested: • taxifolin (Ametis Lavitol®, 98.8% purity) • Eudragit® E CSE 2:1 (solid dispersion formulation) • FD β (cyclodextrin formulation)

Data set [6] in a line: Saturation solubility in dist. water (HPLC), β-CD complexes. The data set is classed as physicochemical. As to conditions: distilled water, thermodynamic from solid, saturated solution shaken 60 minutes, HPLC DAD-254 nm, read-out: Solubility of taxifolin. How it is done: Saturation Solubility in Dist. Water (HPLC)
The last most important point in terms of comparing the production methods to one another is solubility in distilled water. The solubility of the complex has a direct influence on bioavailability, because only dissolved complexes/active ingredients can pass the epithelial cells of the GI tract. Moreover, the samples were examined for rel. substances in order to identify possible degradation of the active ingredient during the production process.
10 mg taxifolin (Lavitol® 98.9% purity) was placed in a vial with 5 ml dist. water to make a saturated solution and shaken for 60 minutes. The solution was then transferred to a vial using a syringe with an HPLC filter (0.22 μm) and then measured undiluted (HPLC DAD-254 nm).
500 mg of the sample was placed in a vial with 6 ml dist. water to make a saturated solution and shaken for 60 minutes. The solution was then transferred to a vial using a syringe with an HPLC filter (0.22 μm), diluted 10:1 with distilled water to prevent oversaturation, and then measured (HPLC DAD-254 nm). The taxifolin concentration was calculated in mg/ml based on the peak area, taking into account the dilution.

The nature of data set [7]: Solubility of the solid dispersion with Eudragit E in 0.1 N HCl (simulated gastric juices). The data set is classed as physicochemical. The note with it: simulated gastric fluid, thermodynamic from solid, saturated solution, room temperature, HPLC, read-out: Solubility of taxifolin. The method, then:
The last most important point for comparing the production methods to one another is solubility in simulated gastric juices. That is, the solubility of the complex directly influences bioavailability, because only dissolved active ingredients can pass the epithelial cells of the GI tract
10 mg taxifolin (Lavitol® 98.9% purity) was placed in a vial with 5 ml 0.1 N HCl to make a saturated solution and shaken for 60 minutes. The solution was then transferred into a vial by means of a syringe with an HPLC filter (0.22 μm) and then measured.
Saturated solutions of the samples in 0.1 molar HCl solution were prepared at room temperature. The solution was then transferred to a vial by means of a syringe with an HPLC filter (0.22 μm), appropriately diluted and the taxifolin concentration of the solution was determined by HLPC.

Data set [8] in a line: Solubility of taxifolin in organic solvents. The data set is classed as physicochemical.

The values below come from US20220008382A1, “ALCOHOL ANTIDOTE” (Evanium Healthcare GmbH, priority 2018, published 2022).

Each structure is given as a SMILES string. Converted amounts (≈) assume the structure as drawn. A value given as a limit tells only on which side of the number the result lay.

As for `CCO` [ethanol], the “Concentration from which the high-affinity binding site is occupied” value in data set [1] was ≥ 3 mM. In addition, the “Concentration from which the low-affinity binding site is occupied” value in data set [2] was ≥ 50 mM.

For `O=C1c2c(O)cc(O)cc2O[C@H](c2ccc(O)c(O)c2)[C@H]1O` [Taxifolin reference, (+)taxifolin], in data set [3], the NOAEL level was 1500 mg/kg. Moreover, the solubility – broadly, how much of the substance goes into solution per volume – at 60 min is 750 µg/mL (≈ 2460 µM) in data set [4], 750 µg/mL (≈ 2460 µM) in data set [6] and 693 µg/mL (≈ 2280 µM) in data set [7]. The Mean release in data set [5] (5 min) was 29%; in data set [5] (10 min) it was 46%; in data set [5] (15 min, listed as taxifolin), 60%; in data set [5] (15 min, listed as taxifolin (reference)) it was 60%; in data set [5] (20 min) it was 69%; in data set [5] (30 min) it was 79%. The Mean release in data set [5] (60 min) was 92%. In addition, the Release in data set [5] (5 min, vessel 1, 500 ml 0.1 N HCl) amounted to 28.2%; in data set [5] (5 min, vessel 2, 500 ml 0.1 N HCl), 29.2%; in data set [5] (10 min, vessel 1, 500 ml 0.1 N HCl), 46.4%; in data set [5] (10 min, vessel 2, 500 ml 0.1 N HCl), 44.8%; in data set [5] (15 min, vessel 1, 500 ml 0.1 N HCl) it was 61.1%; in data set [5] (15 min, vessel 2, 500 ml 0.1 N HCl), 58.7%. For the same compound, the Release in data set [5] (20 min, vessel 1, 500 ml 0.1 N HCl) is recorded as 70.4%; in data set [5] (20 min, vessel 2, 500 ml 0.1 N HCl), 67.5%; in data set [5] (30 min, vessel 1, 500 ml 0.1 N HCl), 80.8%; in data set [5] (30 min, vessel 2, 500 ml 0.1 N HCl) it was 77.4%; in data set [5] (60 min, vessel 1, 500 ml 0.1 N HCl), 90.8%; in data set [5] (60 min, vessel 2, 500 ml 0.1 N HCl), 93.1%. For the same compound, in data set [8], the “Solubility in acetone and ethyl acetate” value is reported as “very soluble”. The “Solubility in diethyl ether” value in data set [8] is given as “insoluble”.
